According to the NIST ThermoML archive (doi:10.1007/s10765-010-0766-0):
Where “and” joins values, the source holds several entries; their conditions need not be identical. Identical values can stand only once. Numbers after ± are expanded uncertainties.

Assay: molar heat capacity at constant volume
Conditions: Liquid, Vacuum adiabatic calorimetry

## FC(F)C(F)(F)OCC(F)(F)F [2,2,2-trifluoroethyl 1,1,2,2-tetrafluoroethyl ether]
342.15 K, 16809 kPa
  molar heat capacity at constant volume: 207.06 ± 9.4 J/K/mol
342.15 K, 16812 kPa
  molar heat capacity at constant volume: 204.66 ± 9.2 J/K/mol
343.15 K, 17505 kPa
  molar heat capacity at constant volume: 207.06 ± 9.4 J/K/mol
343.15 K, 17508 kPa
  molar heat capacity at constant volume: 209.46 ± 9.4 J/K/mol
344.15 K, 18201 kPa
  molar heat capacity at constant volume: 208.46 ± 9.4 J/K/mol
344.15 K, 18203 kPa
  molar heat capacity at constant volume: 206.86 ± 9.4 J/K/mol
345.15 K, 18896 kPa
  molar heat capacity at constant volume: 207.66 ± 9.4 J/K/mol
345.15 K, 18898 kPa
  molar heat capacity at constant volume: 208.46 ± 9.4 J/K/mol
346.15 K, 19590 kPa
  molar heat capacity at constant volume: 208.86 ± 9.4 J/K/mol
346.15 K, 19592 kPa
  molar heat capacity at constant volume: 209.46 ± 9.4 J/K/mol
347.15 K, 20282 kPa
  molar heat capacity at constant volume: 208.46 ± 9.4 J/K/mol
347.15 K, 20287 kPa
  molar heat capacity at constant volume: 209.26 ± 9.4 J/K/mol
348.15 K, 20974 kPa
  molar heat capacity at constant volume: 209.86 ± 9.4 J/K/mol
348.15 K, 20978 kPa
  molar heat capacity at constant volume: 208.06 ± 9.4 J/K/mol
349.15 K, 21666 kPa
  molar heat capacity at constant volume: 210.06 ± 9.4 J/K/mol
349.15 K, 21671 kPa
  molar heat capacity at constant volume: 208.66 ± 9.4 J/K/mol
350.15 K, 22357 kPa
  molar heat capacity at constant volume: 208.66 ± 9.4 J/K/mol
350.15 K, 22360 kPa
  molar heat capacity at constant volume: 209.86 ± 9.4 J/K/mol
351.15 K, 23047 kPa
  molar heat capacity at constant volume: 209.86 ± 9.4 J/K/mol
351.15 K, 23050 kPa
  molar heat capacity at constant volume: 209.26 ± 9.4 J/K/mol
352.15 K, 23735 kPa
  molar heat capacity at constant volume: 210.86 ± 9.4 J/K/mol
352.15 K, 23739 kPa
  molar heat capacity at constant volume: 210.46 ± 9.4 J/K/mol
353.15 K, 24423 kPa
  molar heat capacity at constant volume: 210.26 ± 9.4 J/K/mol
353.15 K, 24426 kPa
  molar heat capacity at constant volume: 208.06 ± 9.4 J/K/mol
354.15 K, 25110 kPa
  molar heat capacity at constant volume: 210.86 ± 9.4 J/K/mol
354.15 K, 25114 kPa
  molar heat capacity at constant volume: 212.46 ± 9.6 J/K/mol
355.15 K, 25797 kPa
  molar heat capacity at constant volume: 211.06 ± 9.6 J/K/mol
355.15 K, 25801 kPa
  molar heat capacity at constant volume: 209.46 ± 9.4 J/K/mol
356.15 K, 26482 kPa
  molar heat capacity at constant volume: 211.86 ± 9.6 J/K/mol
356.15 K, 26486 kPa
  molar heat capacity at constant volume: 212.66 ± 9.6 J/K/mol
357.15 K, 27166 kPa
  molar heat capacity at constant volume: 211.26 ± 9.6 J/K/mol
357.15 K, 27171 kPa
  molar heat capacity at constant volume: 210.26 ± 9.4 J/K/mol
358.15 K, 27851 kPa
  molar heat capacity at constant volume: 212.26 ± 9.6 J/K/mol
358.15 K, 27855 kPa
  molar heat capacity at constant volume: 211.46 ± 9.6 J/K/mol
359.15 K, 5632 kPa
  molar heat capacity at constant volume: 208.86 ± 9.4 J/K/mol
359.15 K, 5637 kPa
  molar heat capacity at constant volume: 212.66 ± 9.6 J/K/mol
359.15 K, 28535 kPa
  molar heat capacity at constant volume: 212.86 ± 9.6 J/K/mol
359.15 K, 28538 kPa
  molar heat capacity at constant volume: 210.46 ± 9.4 J/K/mol
360.15 K, 6174 kPa
  molar heat capacity at constant volume: 219.66 ± 9.8 J/K/mol
360.15 K, 6180 kPa
  molar heat capacity at constant volume: 217.06 ± 9.8 J/K/mol
360.15 K, 29217 kPa
  molar heat capacity at constant volume: 214.06 ± 9.6 J/K/mol
360.15 K, 29220 kPa
  molar heat capacity at constant volume: 212.66 ± 9.6 J/K/mol
361.15 K, 6718 kPa
  molar heat capacity at constant volume: 218.26 ± 9.8 J/K/mol
361.15 K, 6724 kPa
  molar heat capacity at constant volume: 216.66 ± 9.8 J/K/mol
361.15 K, 29899 kPa
  molar heat capacity at constant volume: 213.46 ± 9.6 J/K/mol
361.15 K, 29902 kPa
  molar heat capacity at constant volume: 211.26 ± 9.6 J/K/mol
362.15 K, 7261 kPa
  molar heat capacity at constant volume: 215.86 ± 9.8 J/K/mol
362.15 K, 7266 kPa
  molar heat capacity at constant volume: 216.46 ± 9.8 J/K/mol
363.15 K, 7803 kPa
  molar heat capacity at constant volume: 218.26 ± 9.8 J/K/mol
363.15 K, 7809 kPa
  molar heat capacity at constant volume: 215.46 ± 9.6 J/K/mol
364.15 K, 8346 kPa
  molar heat capacity at constant volume: 219.06 ± 9.8 J/K/mol
364.15 K, 8350 kPa
  molar heat capacity at constant volume: 216.06 ± 9.8 J/K/mol
365.15 K, 8888 kPa
  molar heat capacity at constant volume: 216.66 ± 9.8 J/K/mol
365.15 K, 8892 kPa
  molar heat capacity at constant volume: 215.86 ± 9.8 J/K/mol
366.15 K, 9430 kPa
  molar heat capacity at constant volume: 217.86 ± 9.8 J/K/mol
366.15 K, 9434 kPa
  molar heat capacity at constant volume: 216.86 ± 9.8 J/K/mol
367.15 K, 9971 kPa
  molar heat capacity at constant volume: 217.46 ± 9.8 J/K/mol
367.15 K, 9976 kPa
  molar heat capacity at constant volume: 214.46 ± 9.6 J/K/mol
368.15 K, 10512 kPa
  molar heat capacity at constant volume: 219.06 ± 9.8 J/K/mol
368.15 K, 10516 kPa
  molar heat capacity at constant volume: 216.46 ± 9.8 J/K/mol
369.15 K, 11053 kPa
  molar heat capacity at constant volume: 221.26 ± 10 J/K/mol
369.15 K, 11057 kPa
  molar heat capacity at constant volume: 217.06 ± 9.8 J/K/mol
370.15 K, 11593 kPa
  molar heat capacity at constant volume: 218.86 ± 9.8 J/K/mol
370.15 K, 11598 kPa
  molar heat capacity at constant volume: 217.46 ± 9.8 J/K/mol
371.15 K, 12133 kPa
  molar heat capacity at constant volume: 218.66 ± 9.8 J/K/mol
371.15 K, 12137 kPa
  molar heat capacity at constant volume: 218.86 ± 9.8 J/K/mol
372.15 K, 12673 kPa
  molar heat capacity at constant volume: 218.86 ± 9.8 J/K/mol
372.15 K, 12677 kPa
  molar heat capacity at constant volume: 215.86 ± 9.8 J/K/mol
373.15 K, 13212 kPa
  molar heat capacity at constant volume: 219.66 ± 9.8 J/K/mol
373.15 K, 13216 kPa
  molar heat capacity at constant volume: 217.86 ± 9.8 J/K/mol
374.15 K, 13752 kPa
  molar heat capacity at constant volume: 219.46 ± 9.8 J/K/mol
374.15 K, 13756 kPa
  molar heat capacity at constant volume: 217.66 ± 9.8 J/K/mol
375.15 K, 14290 kPa
  molar heat capacity at constant volume: 217.86 ± 9.8 J/K/mol
375.15 K, 14294 kPa
  molar heat capacity at constant volume: 219.06 ± 9.8 J/K/mol
376.15 K, 14828 kPa
  molar heat capacity at constant volume: 220.86 ± 10 J/K/mol
376.15 K, 14831 kPa
  molar heat capacity at constant volume: 218.86 ± 9.8 J/K/mol
377.15 K, 15366 kPa
  molar heat capacity at constant volume: 220.06 ± 10 J/K/mol
377.15 K, 15369 kPa
  molar heat capacity at constant volume: 218.46 ± 9.8 J/K/mol
378.15 K, 15904 kPa
  molar heat capacity at constant volume: 218.46 ± 9.8 J/K/mol
378.15 K, 15906 kPa
  molar heat capacity at constant volume: 219.66 ± 9.8 J/K/mol
379.15 K, 16441 kPa
  molar heat capacity at constant volume: 218.86 ± 9.8 J/K/mol
379.15 K, 16443 kPa
  molar heat capacity at constant volume: 219.86 ± 9.8 J/K/mol
380.15 K, 16977 kPa
  molar heat capacity at constant volume: 219.26 ± 9.8 J/K/mol
380.15 K, 16980 kPa
  molar heat capacity at constant volume: 219.46 ± 9.8 J/K/mol
381.15 K, 17514 kPa
  molar heat capacity at constant volume: 219.26 ± 9.8 J/K/mol
381.15 K, 17515 kPa
  molar heat capacity at constant volume: 217.26 ± 9.8 J/K/mol
382.15 K, 18050 kPa
  molar heat capacity at constant volume: 219.86 ± 9.8 J/K/mol
382.15 K, 18051 kPa
  molar heat capacity at constant volume: 219.66 ± 9.8 J/K/mol
383.15 K, 18585 kPa
  molar heat capacity at constant volume: 221.26 ± 10 J/K/mol
383.15 K, 18586 kPa
  molar heat capacity at constant volume: 221.46 ± 10 J/K/mol
384.15 K, 19120 kPa
  molar heat capacity at constant volume: 220.66 ± 10 J/K/mol
384.15 K, 19121 kPa
  molar heat capacity at constant volume: 222.06 ± 10 J/K/mol
385.15 K, 19655 kPa
  molar heat capacity at constant volume: 218.86 ± 9.8 J/K/mol
385.15 K, 19656 kPa
  molar heat capacity at constant volume: 220.66 ± 10 J/K/mol
386.15 K, 20189 kPa
  molar heat capacity at constant volume: 221.06 ± 10 J/K/mol
387.15 K, 20723 kPa
  molar heat capacity at constant volume: 223.66 ± 10 J/K/mol and 224.66 ± 10 J/K/mol
388.15 K, 21256 kPa
  molar heat capacity at constant volume: 224.66 ± 10 J/K/mol and 224.06 ± 10 J/K/mol
389.15 K, 21789 kPa
  molar heat capacity at constant volume: 225.66 ± 10 J/K/mol and 224.86 ± 10 J/K/mol
390.15 K, 22322 kPa
  molar heat capacity at constant volume: 226.86 ± 10 J/K/mol and 224.86 ± 10 J/K/mol
391.15 K, 22854 kPa
  molar heat capacity at constant volume: 224.66 ± 10 J/K/mol
391.15 K, 22855 kPa
  molar heat capacity at constant volume: 228.46 ± 10 J/K/mol
392.15 K, 23385 kPa
  molar heat capacity at constant volume: 225.06 ± 10 J/K/mol
392.15 K, 23386 kPa
  molar heat capacity at constant volume: 227.06 ± 10 J/K/mol
393.15 K, 23917 kPa
  molar heat capacity at constant volume: 228.26 ± 10 J/K/mol and 226.46 ± 10 J/K/mol
394.15 K, 24448 kPa
  molar heat capacity at constant volume: 226.26 ± 10 J/K/mol and 223.66 ± 10 J/K/mol
395.15 K, 24978 kPa
  molar heat capacity at constant volume: 226.66 ± 10 J/K/mol and 225.06 ± 10 J/K/mol
396.15 K, 25507 kPa
  molar heat capacity at constant volume: 229.06 ± 10 J/K/mol
396.15 K, 25508 kPa
  molar heat capacity at constant volume: 226.86 ± 10 J/K/mol
397.15 K, 26037 kPa
  molar heat capacity at constant volume: 228.06 ± 10 J/K/mol
397.15 K, 26038 kPa
  molar heat capacity at constant volume: 226.06 ± 10 J/K/mol
398.15 K, 26566 kPa
  molar heat capacity at constant volume: 229.06 ± 10 J/K/mol
398.15 K, 26567 kPa
  molar heat capacity at constant volume: 227.06 ± 10 J/K/mol
399.15 K, 27094 kPa
  molar heat capacity at constant volume: 227.06 ± 10 J/K/mol
399.15 K, 27096 kPa
  molar heat capacity at constant volume: 227.86 ± 10 J/K/mol
400.15 K, 27622 kPa
  molar heat capacity at constant volume: 228.66 ± 10 J/K/mol
400.15 K, 27623 kPa
  molar heat capacity at constant volume: 228.46 ± 10 J/K/mol
401.15 K, 28150 kPa
  molar heat capacity at constant volume: 229.66 ± 10 J/K/mol
401.15 K, 28151 kPa
  molar heat capacity at constant volume: 227.66 ± 10 J/K/mol
402.15 K, 28677 kPa
  molar heat capacity at constant volume: 226.66 ± 10 J/K/mol
402.15 K, 28678 kPa
  molar heat capacity at constant volume: 227.26 ± 10 J/K/mol
403.15 K, 29204 kPa
  molar heat capacity at constant volume: 229.26 ± 10 J/K/mol
403.15 K, 29205 kPa
  molar heat capacity at constant volume: 227.86 ± 10 J/K/mol
404.15 K, 29730 kPa
  molar heat capacity at constant volume: 227.86 ± 10 J/K/mol
404.15 K, 29732 kPa
  molar heat capacity at constant volume: 229.86 ± 10 J/K/mol
